These results are taken from ChEMBL document CHEMBL1833860 (Bioorg Med Chem Lett, 2011).

Series [1] can be described thus: Dissociation constant, pKa of the compound. It is filed as physicochemical.
The nature of series [2]: Volume of distribution at steady state in rat at 1 mg/kg, iv and 3 mg/kg, po. The series is classed as ADME, organism-based. The following applies: in vivo, read-out: Vdss.
Series [3] in a line: Half life in rat at 1 mg/kg, iv and 3 mg/kg, po. The series is classed as ADME, organism-based. The following applies: in vivo.
Series [4] can be described thus: Clearance in rat at 1 mg/kg, iv and 3 mg/kg, po. The series is classed as ADME, organism-based. The following applies: in vivo.
A short description of series [5]: Oral bioavailability in rat at 3 mg/kg. The series is classed as ADME, organism-based. The following applies: in vivo.
Series [6] can be described thus: Distribution coefficient, log D of compound. It is filed as physicochemical. The following applies: octanol/water.
Series [7] in a line: Aqueous solubility of compound in fed state simulated intestinal fluid at pH 6.5. It is filed as physicochemical.

Converted amounts (≈) assume the structure as drawn.

`Cc1cccc(Nc2nc(N[C@@H]3CCCC[C@@H]3N)ncc2C(N)=O)c1` had a pKa in series [1] of 9.4.
For `Cc1cccc(Nc2nc(N[C@@H]3CCOC[C@@H]3N)ncc2C(N)=O)c1`, in series [1], the pKa was determined as 8.1. In series [2], the Vd is 4 L/kg. Further, the half-life in series [3] was 1.9 h. This compound also displayed a clearance in series [4] of 32 mL/min/kg. For the same compound, the bioavailability in series [5] was found to be 14%.
The compound `Cc1ccc(Nc2nc(N[C@@H]3CCOC[C@@H]3N)ncc2C(N)=O)cc1` registered a logD in series [6] of 0.9. This compound also returned a solubility in series [7] of 420 µg/mL (≈ 1230 µM). In addition, in series [2], the Vd turned out to be 4.1 L/kg. Also, the half-life in series [3] was 4.2 h. Further, the clearance in series [4] turned out to be 16 mL/min/kg. In series [5], this compound yielded a bioavailability of 30%.
With `COc1ccc(Nc2nc(N[C@@H]3CCOC[C@@H]3N)ncc2C(N)=O)cc1`, the Vd in series [2] turned out to be 3.9 L/kg. For the same compound, in series [3], the half-life was 2.3 h. The clearance in series [4] came to 45 mL/min/kg. The bioavailability in series [5] amounted to 10%.
As for `Cc1cccc(Nc2nc(N[C@@H]3CC(F)(F)CC[C@@H]3N)ncc2C(N)=O)c1` (racemic), the pKa in series [1] stood at 7.9.
